This passage reports Activity and inhibition results from ChEMBL document CHEMBL3091316, “Antiangiogenic tocotrienol derivatives from Garcinia amplexicaulis” (J Nat Prod, 2013).

Calls of active or inactive are those of the source. The calls are words filed in the database; no cut-off is given here.

Data set [1] relates to HUVEC. The data set is described as follows: Cytotoxicity against HUVEC assessed as cell viability at 25 nM to 2.5 uM after 24 to 48 hrs by MTT assay. The format is cell-based. The settings on record: human, 0.025 µM.
Data set [2] relates to HUVEC. Description: Inhibition of VEGF-induced HUVEC proliferation at 25 nM to 2.5 uM incubated for 30 mins prior to VEGF challenge measured after 24 hrs by fluorescence assay. It is filed as functional, cell-based. The settings on record: Homo sapiens.
The test system of data set [3] is HUVEC. Description: Antiadhesive activity in HUVEC assessed as decrease in cell adhesion at 25 nM to 2.5 uM after 24 hrs by crystal violet staining technique. The settings on record: Homo sapiens. It is filed as functional, cell-based.
The subject of data set [4] is HUVEC. Description: Antimigratory activity in VEGF-induced HUVEC assessed as decrease in cell migration at 25 nM to 2.5 uM incubated for 30 mins prior to VEGF challenge measured after 24 hrs by Transwell assay. It is filed as functional, cell-based. The settings on record: Homo sapiens.
Data set [5] has as its system HUVEC. Description: Antiangiogenic activity in HUVEC assessed as inhibition of VEGF-induced capillary network formation at 25 nM to 2.5 uM after 24 hrs by matrigel assay. The settings on record: Homo sapiens. It is filed as functional, cell-based.
Data set [6] has as its system HUVEC. The data set is described as follows: Antimigratory activity in VEGF-induced HUVEC assessed as decrease in cell migration at 2.5 uM incubated for 30 mins prior to VEGF challenge measured after 24 hrs by Transwell assay. It is filed as functional, cell-based. The settings on record: Homo sapiens.

`C/C(=C\CC/C(C)=C/CC[C@]1(C)CCc2cc(O)c(C)c(C)c2O1)CCC=C(CO)CO`: the Activity entry in the data set on HUVEC [1] is reported as “Non-toxic”. Besides, the inhibition result in the data set on HUVEC [2] is “Active”. For the same compound, the result in the data set with HUVEC [3] and in the data set on HUVEC [4] was inactive. Further, in the data set with HUVEC [5], the result was Active.
In the case of `C/C(=C\CC/C(C)=C/CC[C@]1(C)CCc2cc(O)cc(C)c2O1)CCC=C(CO)CO`, the Activity result in the data set on HUVEC [1] was “Non-toxic”. Besides, the inhibition entry in the data set with HUVEC [2] is “Active”. In addition, the outcome in the data set with HUVEC [3], in the data set on HUVEC [6] and in the data set on HUVEC [5] was Active.
